Experimental findings from the PolyMetriX glass transition set are described below.

Each structure is given as a SMILES string. ± gives the standard deviation of the reports.

As for `*C(=O)c1ccc2c(c1)C(=O)N(c1c(C)cc(Cc3cc(C)c(N4C(=O)c5ccc(*)cc5C4=O)c(C)c3)cc1C)C2=O` (repeat unit), the glass transition temperature is 320.00 ± 16 °C. `*C(=O)c1ccc2c(c1)C(=O)N(c1cccc(Cc3ccc(C(=O)c4cccc(N5C(=O)c6ccc(*)cc6C5=O)c4)cc3)c1)C2=O` (repeat unit) displayed a glass transition temperature of 265.50 °C. As for `*CCCCCCCCCCCCN1C(=O)c2cccc3c(-c4ccc5c6c(cccc46)C(=O)N(CCCCCCCCCCCCN4C(=O)c6ccc7c8ccc9c%10c(ccc(c%11ccc(c6c7%11)C4=O)c%108)C(=O)N(*)C9=O)C5=O)ccc(c23)C1=O` (repeat unit), the glass transition temperature is 210.00 °C. The compound `*CCCCCCCCCCCCc1nc2ccc(-c3ccc4nc(*)oc4c3)cc2o1` (repeat unit) gave a glass transition temperature of 55.00 °C. On to `*CCCCCCn1ccc(-c2cccc(-c3ccn(*)n3)c2)n1` (repeat unit), for which the glass transition temperature came out at 70.00 °C. With `*Oc1ccc(-c2ccc(Oc3ccc(C(=O)c4cccc5cccc(C(=O)c6ccc(*)cc6)c45)cc3)cc2)cc1` (repeat unit), the glass transition temperature turned out to be 226.50 °C. Turning to `*Oc1ccc(-c2ccc(Oc3ccc(C(=O)c4ccccc4-c4ccccc4C(=O)c4ccc(*)cc4)cc3)cc2)cc1` (repeat unit), the glass transition temperature turned out to be 193.00 °C. With `*Oc1ccc(C(c2ccc(Oc3ccc(C(=O)c4cccc5cccc(C(=O)c6ccc(*)cc6)c45)cc3)cc2)(C(F)(F)F)C(F)(F)F)cc1` (repeat unit) the figure was 213.00 °C.

On to `*Oc1ccc(C(c2ccc(Oc3ccc(C(=O)c4ccccc4-c4ccccc4C(=O)c4ccc(*)cc4)cc3)cc2)(C(F)(F)F)C(F)(F)F)cc1` (repeat unit), for which the glass transition temperature was 178.50 °C. `*c1cc(CCCCCC)c(-c2ccc3c4ccc(-c5sc(-c6sc(*)c7nc(CC)c(CC)nc67)cc5CCCCCC)cc4n(CCCCCCCCCCCC)c3c2)s1` (repeat unit): the glass transition temperature was 89.00 °C.

In turn, `*c1ccc(-c2ccc(-c3cc(-c4ccc(-c5ccc(Oc6ccccc6)cc5)cc4)c4cc(-c5ccc6nc(*)cc(-c7ccc(-c8ccc(Oc9ccccc9)cc8)cc7)c6c5)ccc4n3)cc2)cc1` (repeat unit) showed a glass transition temperature of 374.00 °C. With `*c1ccc(-c2ccc(-c3nc4ccc(-c5ccc6nc(*)c(-c7ccccc7)nc6c5)cc4nc3-c3ccccc3)cc2)cc1` (repeat unit) the figure was 404.00 °C. Compound `*c1ccc(-c2cnc3ccc(S(=O)(=O)c4ccc5ncc(*)nc5c4)cc3n2)cc1` (repeat unit) displayed a glass transition temperature of 342.00 °C.

Consider `*c1ccc(-c2nc(-c3cccc(-c4nnc(-c5ccccc5)c(*)n4)n3)nnc2-c2ccccc2)cc1` (repeat unit), for which the glass transition temperature was 260.00 °C. As for `*c1ccc(-c2nc3ccc(-c4ccc5nc(*)c(-c6ccccc6)nc5c4)cc3nc2-c2ccccc2)cc1` (repeat unit), the glass transition temperature amounted to 354.50 °C. `*c1ccc(Cc2ccc(-n3nccc3-c3cccc(-c4ccnn4*)c3)cc2)cc1` (repeat unit) had a glass transition temperature of 212.00 °C.

`*c1ccc(Cc2cccc(-n3c(=O)c4cc5c(=O)n(*)c(=O)c5cc4c3=O)c2)cc1` (repeat unit) showed a glass transition temperature of 339.00 °C. On to `*c1ccc(N2C(=O)c3ccc(Oc4ccc5c(c4)C(=O)N(*)C5=O)cc3C2=O)cc1` (repeat unit), for which the glass transition temperature was found to be 355.8 ± 42 °C. As for `*c1ccc(Oc2ccc(-c3cnnc(-c4cccc(-c5ncc(*)nn5)n4)n3)cc2)cc1` (repeat unit), the figure is 223.00 °C. `*c1ccc(Oc2ccc(-c3nc4cc(-c5ccc6nc(*)c(-c7ccccc7)nc6c5)ccc4nc3-c3ccccc3)cc2)cc1` (repeat unit) showed a glass transition temperature of 292.50 °C. `*c1ccc(Oc2ccc(-c3nc4cc(-c5ccc6nc(-c7ccccc7)c(*)nc6c5)ccc4nc3-c3ccccc3)cc2)cc1` (repeat unit): the glass transition temperature is 300.00 °C. Take `*c1ccc(Oc2ccc(-c3nc4ccc(-c5ccc6nc(*)c(-c7ccccc7)nc6c5)cc4nc3-c3ccccc3)cc2)cc1` (repeat unit): the glass transition temperature came out at 306.00 °C. `*c1ccc(Oc2ccc(Oc3ccc(Oc4ccc(-c5nc6ccc(-c7ccc8nc(*)c(-c9ccccc9)nc8c7)cc6nc5-c5ccccc5)cc4)cc3)cc2)cc1` (repeat unit) had a glass transition temperature of 263.00 °C.

Compound `*c1ccc2c(c1)C(=O)N(c1cccc(N3C(=O)c4ccc(C(*)(C(F)(F)F)C(F)(F)F)cc4C3=O)c1C)C2=O` (repeat unit) had a glass transition temperature of 353.50 °C. Consider `*c1ccc2c(c1)C(CCCCCC)(CCCCCC)c1cc(-c3cc(OCc4ccccc4)c(*)cc3OCc3ccccc3)ccc1-2` (repeat unit), for which the glass transition temperature was determined as 73.00 °C. With `*c1ccc2c(c1)C(CCCCCC)(CCCCCC)c1cc(-c3ccc4c(c3)c3cc(*)ccc3n4-c3ccccc3)ccc1-2` (repeat unit) the figure was 170.00 °C. As for `*c1ccc2c(c1)Sc1cc(-c3ccc(-c4ccc(*)s4)s3)ccc1N2CCCCCCCCCC` (repeat unit), the figure is 142.00 °C; as for `*c1ccc2c(c1)Sc1cc(-c3sc4cc(*)sc4c3CCCCC)ccc1N2CCCCCC` (repeat unit), 126.00 °C; as for `*c1ccc2c(c1)Sc1cc(-c3sc4cc(*)sc4c3CCCCC)ccc1N2CCCCCCCCCC` (repeat unit), 131.00 °C. Turning to `*c1ccc2c(c1)Sc1cc(-c3sc4cc(*)sc4c3CCCCC)ccc1N2CCCCCCCCCCCC` (repeat unit), the glass transition temperature is 136.00 °C. `*c1ccc2cc(-c3nc4ccc(-c5ccc6nc(*)[nH]c6c5)cc4[nH]3)ccc2c1` (repeat unit) had a glass transition temperature of 403.00 °C.

In turn, `*c1ccc2cc3cc(-c4sc(-c5cc(CCCCCCCCCCCC)c(*)s5)cc4CCCCCCCCCCCC)ccc3cc2c1` (repeat unit) came in with a glass transition temperature of 158.00 °C.

`*c1ccc2oc(-c3ccc(-c4nc5cc(C(*)(C(F)(F)F)C(F)(F)F)ccc5o4)cn3)nc2c1` (repeat unit): the glass transition temperature worked out at 352.00 °C. As for `*c1ccc2oc(-c3ccc(C(c4ccc(-c5nc6cc(C(*)(c7ccccc7)C(F)(F)F)ccc6o5)cc4)(C(F)(F)F)C(F)(F)F)cc3)nc2c1` (repeat unit), the figure is 334.00 °C; as for `*c1ccc2oc(-c3ccc(Oc4ccc(-c5nc6cc(C(*)(c7ccccc7)C(F)(F)F)ccc6o5)cc4)cc3)nc2c1` (repeat unit), 299.00 °C.

Consider `*c1ccc2oc(-c3cccc(-c4nc5cc(C(*)(C(F)(F)F)C(F)(F)F)ccc5o4)c3)nc2c1` (repeat unit), for which the glass transition temperature amounted to 301.00 °C.

`*c1ccc2oc3ccc(S(*)(=O)=O)cc3c2c1` (repeat unit) showed a glass transition temperature of 360.00 °C. `*c1cccc(-c2cccc(C(F)(F)C(F)(F)C(*)(F)F)c2)c1` (repeat unit) gave a glass transition temperature of 45.00 °C.

`*c1cccc(-c2nc3cc(-c4ccc5[nH]c(*)nc5c4)ccc3[nH]2)c1` (repeat unit) showed a glass transition temperature of 410.00 °C. With `*c1cccc(-c2nc3ccc(-c4ccc5nc(*)sc5c4)cc3s2)c1` (repeat unit) the figure was 495.00 °C. On to `*c1cccc(-n2c(=O)c3cc4c(=O)n(*)c(=O)c4cc3c2=O)c1` (repeat unit), for which the glass transition temperature is 430.00 °C. `*c1cccc(-n2nc(-c3ccccc3)c3cc(Oc4ccc5c(-c6ccccc6)nn(*)c(=O)c5c4)ccc3c2=O)c1C#N` (repeat unit) came in with a glass transition temperature of 301.00 °C. With `*c1cccc(C(=O)c2c(C)cc(C)c(N3C(=O)c4ccc(Oc5ccc6c(c5)C(=O)N(*)C6=O)cc4C3=O)c2C)c1` (repeat unit) the figure was 287.00 °C; with `*c1cccc(N2C(=O)C(=O)N(c3ccc(Cc4ccc(N5C(=O)C(=O)N(*)C5=O)cc4)cc3)C2=O)n1` (repeat unit), 237.00 °C; with `*c1cccc(Oc2cccc(Oc3cccc(-n4c(=O)c5cc6c(=O)n(*)c(=O)c6cc5c4=O)c3)c2)c1` (repeat unit), 221.00 °C.

As to `*c1cccc(P(=O)(c2cccc(-n3c(=O)c4cc5c(=O)n(*)c(=O)c5c(-c5ccc(C(F)(F)F)cc5)c4c3=O)c2)c2cc(C(F)(F)F)cc(C(F)(F)F)c2)c1` (repeat unit), the glass transition temperature came to 292.00 °C. In turn, `*c1cccc(P(=O)(c2ccccc2)c2cccc(-n3c(=O)c4c(-c5ccc(C(F)(F)F)cc5)c5c(=O)n(*)c(=O)c5c(-c5ccc(C(F)(F)F)cc5)c4c3=O)c2)c1` (repeat unit) had a glass transition temperature of 334.00 °C. In turn, `*c1cccc(P(=O)(c2ccccc2)c2cccc(-n3c(=O)c4cc5c(=O)n(*)c(=O)c5c(-c5cc(C(F)(F)F)cc(C(F)(F)F)c5)c4c3=O)c2)c1` (repeat unit) registered a glass transition temperature of 299.00 °C.

The compound `*c1cccc(P(=O)(c2ccccc2)c2cccc(-n3c(=O)c4cc5c(=O)n(*)c(=O)c5c(-c5ccccc5)c4c3=O)c2)c1` (repeat unit) gave a glass transition temperature of 325.00 °C. Regarding `*c1cccc(P(=O)(c2ccccc2)c2cccc(-n3c(=O)c4cc5c(=O)n(*)c(=O)c5cc4c3=O)c2)c1` (repeat unit), the glass transition temperature amounted to 331.00 °C.

Consider `*c1nc(-c2ccccc2)nc(N(CCCCCCCCCCN(*)c2ccccc2)c2ccccc2)n1` (repeat unit), for which the glass transition temperature worked out at 62.00 °C. In turn, `*c1nc(-c2ccccc2)nc(N(CCCCN(*)c2ccccc2)c2ccccc2)n1` (repeat unit) yielded a glass transition temperature of 94.00 °C. In turn, `*c1nc(-c2ccccc2)nc(N(c2ccccc2)c2ncnc(N(*)c3ccccc3)n2)n1` (repeat unit) yielded a glass transition temperature of 279.00 °C. Regarding `*c1nc(C(F)(F)C(F)(F)C(F)(F)F)nc(C(F)(F)C(F)(F)C(F)(F)C(F)(F)C(F)(F)C(*)(F)F)n1` (repeat unit), the glass transition temperature is -5.00 °C.

`*c1nc2cc(S(=O)(=O)c3ccc4oc(C5CCC(*)CC5)nc4c3)ccc2o1` (repeat unit) returned a glass transition temperature of 296.00 °C. With `*c1nnc(-c2cc(CCCCCCCCCC)c(-c3sc(-c4nnc(-c5cc(OCCCCCCCC)c(*)cc5OCCCCCCCC)o4)cc3CCCCCCCCCC)s2)o1` (repeat unit) the figure was 53.80 °C.
